Literature values, collected in PMC7395068, “The evolution of strategies to minimise the risk of human drug-induced liver injury (DILI) in drug discovery and development” (Archives of Toxicology, 2020).
Where two headings read alike, the source gives them in different places. *1 amine or outer side, *2 acyl side, *3 side chain or, on linkers, in order; H or OH if unused. Where a SMILES comes first, the peptide text is derived from it. Bridges are numbered along the chain shown (N, C = ends). [ ]: non-standard residue; d: D form. The star is where a group is joined. hTyr(3S-OH,4S-OH,3'-OSO3H) = N[C@H](C(=O)O)[C@H](O)[C@@H](O)c1ccc(O)c(OS(=O)(=O)O)c1; Orn(4R-OH,5R-OH) = O=C([C@H](C[C@@H](O)[C@@H](O)N[*:3])N[*:1])[*:2]; Pro(3S-OH,4S-Me) = C[C@H]1CN[C@H](C(=O)O)[C@H]1O; X1 = CCCCCOc1ccc(-c2cc(-c3ccc(C(=O)*)cc3)no2)cc1; Gln(3R-OH) = NC(=O)C[C@@H](O)[C@H](N)C(=O)O; Hyp = O=C(O)[C@@H]1C[C@@H](O)CN1

Conditions: cited from earlier work
[1] = binary in vivo human DILI call, ref Chen 2016
[2] = human DILI, LTKB DILIrank category, ref Chen 2016
[3] = binary in vivo DILI call given beside the severity category, ref Chen 2016
[4] = human DILI concern category (LTKB DILIrank), ref Chen 2016

Cc1c(OCC(F)(F)F)ccnc1C[S+]([O-])c1nc2ccccc2[nH]1 (stereo not shown) [lansoprazole]
DILI +VE (5-8), DILI -VE (-4) [1]: +VE
DILI severity category [2]: vLess-DILI-Concern

O=C([O-])[O-].O=C([O-])[O-].O=C([O-])[O-].[La+3].[La+3] [lanthanum carbonate]
DILI +VE (5-8), DILI -VE (-4) (in vivo): -VE
DILI severity category (in vivo): vNo-DILI-Concern

Nc1cccc2c1CN(C1CCC(=O)NC1=O)C2=O (stereo not shown) [lenalidomide]
DILI +VE (5-8), DILI -VE (-4) [1]: +VE
DILI severity category [2]: vLess-DILI-Concern

N#Cc1ccc(C(c2ccc(C#N)cc2)n2cncn2)cc1 [letrozole]
DILI +VE (5-8), DILI -VE (-4) [1]: +VE
DILI severity category [2]: vLess-DILI-Concern

Nc1nc2c(c(=O)[nH]1)N(C=O)C(CNc1ccc(C(=O)N[C@@H](CCC(=O)O)C(=O)O)cc1)CN2 (stereo partly shown) [leucovorin]
DILI +VE (5-8), DILI -VE (-4) [1]: -VE
DILI severity category [2]: vNo-DILI-Concern

CN1c2c(nc(N)[nH]c2=O)NC[C@@H]1CNc1ccc(C(=O)N[C@@H](CCC(=O)O)C(=O)O)cc1 [levomefolate calcium]
DILI +VE (5-8), DILI -VE (-4) (in vivo): -VE
DILI severity category (in vivo): vNo-DILI-Concern

C#C[C@]1(O)CC[C@H]2[C@@H]3CCC4=CC(=O)CC[C@@H]4[C@H]3CC[C@@]21CC [levonorgestrel]
DILI +VE (5-8), DILI -VE (-4) (in vivo): -VE
DILI severity category (in vivo): vNo-DILI-Concern

CN1CC[C@]23CCCC[C@H]2[C@H]1Cc1ccc(O)cc13 [levorphanol]
DILI +VE (5-8), DILI -VE (-4) [1]: -VE
DILI severity category [2]: vNo-DILI-Concern

N[C@@H](Cc1cc(I)c(Oc2cc(I)c(O)c(I)c2)c(I)c1)C(=O)O [levothyroxine]
DILI +VE (5-8), DILI -VE (-4) [1]: +VE
DILI severity category [2]: vLess-DILI-Concern

CCC[C@@H]1C[C@@H](C(=O)N[C@@H]([C@H]2O[C@H](SC)[C@H](O)[C@@H](O)[C@H]2O)[C@@H](C)O)N(C)C1 [lincomycin]
DILI +VE (5-8), DILI -VE (-4) [1]: -VE
DILI severity category [2]: Ambiguous DILI-concern

CC(=O)NC[C@H]1CN(c2ccc(N3CCOCC3)c(F)c2)C(=O)O1 [linezolid]
DILI +VE (5-8), DILI -VE (-4) (in vivo): +VE
DILI severity category (in vivo): vLess-DILI-Concern

C[C@@H](Cc1ccccc1)NC(=O)[C@@H](N)CCCCN [lisdexamfetamine]
DILI +VE (5-8), DILI -VE (-4) [1]: -VE
DILI severity category [2]: Ambiguous DILI-concern

O=NN(CCCl)C(=O)NC1CCCCC1 [lomustine]
DILI +VE (5-8), DILI -VE (-4) (in vivo): +VE
DILI severity category (in vivo): vLess-DILI-Concern

N[C@@H](C(=O)N[C@@H]1C(=O)N2C(C(=O)O)=C(Cl)CC[C@H]12)c1ccccc1 [loracarbef]
DILI +VE (5-8), DILI -VE (-4) (in vivo): +VE
DILI severity category (in vivo): vLess-DILI-Concern

O=C1Nc2ccc(Cl)cc2C(c2ccccc2Cl)=NC1O (stereo not shown) [lorazepam]
DILI +VE (5-8), DILI -VE (-4) [1]: -VE
DILI severity category [2]: Ambiguous DILI-concern

CN1CCN(C2=Nc3ccccc3Oc3ccc(Cl)cc32)CC1 [loxapine]
DILI +VE (5-8), DILI -VE (-4) (in vivo): -VE
DILI severity category (in vivo): Ambiguous DILI-concern

OC[C@@H](O)[C@@H](O)[C@H](O)[C@H](O)CO [mannitol]
DILI +VE (5-8), DILI -VE (-4) [1]: -VE
DILI severity category [2]: vNo-DILI-Concern

CCCCCc1cc(O)c2c(c1)OC(C)(C)[C@@H]1CCC(C)=C[C@@H]21 [marinol]
DILI +VE (5-8), DILI -VE (-4) (in vivo): -VE
DILI severity category (in vivo): Ambiguous DILI-concern

Cc1ccc(Cl)c(Nc2ccccc2C(=O)O)c1Cl [meclofenamic acid]
DILI +VE (5-8), DILI -VE (-4) [1]: -VE
DILI severity category [2]: Ambiguous DILI-concern

N[C@@H](Cc1ccc(N(CCCl)CCCl)cc1)C(=O)O [melphalan]
DILI +VE (5-8), DILI -VE (-4) [1]: +VE
DILI severity category [2]: vLess-DILI-Concern

CN1CCCC(CN2c3ccccc3Sc3ccccc32)C1 (stereo not shown) [mepazine]
DILI +VE (5-8), DILI -VE (-4) [1]: +VE
DILI severity category [2]: vMost-DILI-Concern

C[N+]1(C)CCCC(OC(=O)C(O)(c2ccccc2)c2ccccc2)C1 (stereo not shown) [mepenzolate]
DILI +VE (5-8), DILI -VE (-4) [1]: -VE
DILI severity category [2]: vNo-DILI-Concern

CCCC(C)(COC(N)=O)COC(N)=O [meprobamate]
DILI +VE (5-8), DILI -VE (-4) [1]: -VE
DILI severity category [2]: vNo-DILI-Concern

O=S(=O)(O)CCS [mesna]
DILI +VE (5-8), DILI -VE (-4) [3]: -VE
DILI severity category [4]: Ambiguous DILI-concern

CN1CCCCC1CCN1c2ccccc2Sc2ccc([S+](C)[O-])cc21 (stereo not shown) [mesoridazine]
DILI +VE (5-8), DILI -VE (-4) [3]: -VE
DILI severity category [4]: Ambiguous DILI-concern

Cc1cc(C)cc(OCC2CNC(=O)O2)c1 (stereo not shown) [metaxalone]
DILI +VE (5-8), DILI -VE (-4) [3]: +VE
DILI severity category [4]: vLess-DILI-Concern

CCC(=O)C(CC(C)N(C)C)(c1ccccc1)c1ccccc1 (stereo not shown) [methadone]
DILI +VE (5-8), DILI -VE (-4) (in vivo): -VE
DILI severity category (in vivo): Ambiguous DILI-concern

CC(=O)/N=c1/sc(S(N)(=O)=O)nn1C [methazolamide]
DILI +VE (5-8), DILI -VE (-4) [3]: +VE
DILI severity category [4]: vLess-DILI-Concern

C1N2CN3CN1CN(C2)C3 [methenamine hippurate]
DILI +VE (5-8), DILI -VE (-4) [3]: -VE
DILI severity category [4]: Ambiguous DILI-concern

C=CCC1(C(C)C#CCC)C(=O)N=C(O)N(C)C1=O (stereo not shown) [methohexital]
DILI +VE (5-8), DILI -VE (-4) [3]: -VE
DILI severity category [4]: Ambiguous DILI-concern

CN1C(=O)CC(C)(c2ccccc2)C1=O (stereo not shown) [methsuximide]
DILI +VE (5-8), DILI -VE (-4) [3]: -VE
DILI severity category [4]: vNo-DILI-Concern

C[N@+]1(CC2CC2)CC[C@]23c4c5ccc(O)c4O[C@H]2C(=O)CC[C@@]3(O)[C@H]1C5 [methylnaltrexone bromide]
DILI +VE (5-8), DILI -VE (-4) [3]: -VE
DILI severity category [4]: vNo-DILI-Concern

COC(=O)C(c1ccccc1)C1CCCCN1 (stereo not shown) [methylphenidate]
DILI +VE (5-8), DILI -VE (-4) (in vivo): +VE
DILI severity category (in vivo): vLess-DILI-Concern

C[C@H]1C[C@@H]2[C@H]([C@@H](O)C[C@@]3(C)[C@H]2CC[C@]3(O)C(=O)CO)[C@@]2(C)C=CC(=O)C=C12 [methylprednisolone]
DILI +VE (5-8), DILI -VE (-4) [3]: +VE
DILI severity category [4]: vLess-DILI-Concern

C[C@]12CCC(=O)C=C1CC[C@@H]1[C@@H]2CC[C@@]2(C)[C@H]1CC[C@]2(C)O [methyltestosterone]
DILI +VE (5-8), DILI -VE (-4) [3]: +VE
DILI severity category [4]: vLess-DILI-Concern

CC[C@@H](CO)NC(=O)[C@@H]1C=C2c3cccc4c3c(cn4C)C[C@H]2N(C)C1 [methysergide]
DILI +VE (5-8), DILI -VE (-4) [3]: -VE
DILI severity category [4]: vNo-DILI-Concern

Cc1ccccc1N1C(=O)c2cc(S(N)(=O)=O)c(Cl)cc2NC1C (stereo not shown) [metolazone]
DILI +VE (5-8), DILI -VE (-4) [3]: -VE
DILI severity category [4]: Ambiguous DILI-concern

CC(C)(C(=O)c1cccnc1)c1cccnc1 [metyrapone]
DILI +VE (5-8), DILI -VE (-4) [3]: -VE
DILI severity category [4]: vNo-DILI-Concern

CCCCCOc1ccc(-c2cc(-c3ccc(C(=O)N[C@H]4C[C@@H](O)[C@@H](O)NC(=O)[C@@H]5[C@@H](O)[C@@H](C)CN5C(=O)[C@H]([C@H](O)CC(N)=O)NC(=O)[C@H]([C@H](O)[C@@H](O)c5ccc(O)c(OS(=O)(=O)O)c5)NC(=O)[C@@H]5C[C@@H](O)CN5C(=O)[C@H]([C@@H](C)O)NC4=O)cc3)no2)cc1 [micafungin] (X1-[Orn(4R-OH,5R-OH)]T[Hyp][hTyr(3S-OH,4S-OH,3'-OSO3H)][Gln(3R-OH)][Pro(3S-OH,4S-Me)]; lactam 1-C)
DILI +VE (5-8), DILI -VE (-4) [3]: +VE
DILI severity category [4]: vMost-DILI-Concern

OCCN1C[C@H](O)[C@@H](O)[C@H](O)[C@H]1CO [miglitol]
DILI +VE (5-8), DILI -VE (-4) [3]: -VE
DILI severity category [4]: vNo-DILI-Concern

CCCCN1C[C@H](O)[C@@H](O)[C@H](O)[C@H]1CO [miglustat]
DILI +VE (5-8), DILI -VE (-4) [3]: -VE
DILI severity category [4]: vNo-DILI-Concern

Clc1ccc(C(c2ccccc2Cl)C(Cl)Cl)cc1 (stereo not shown) [mitotane]
DILI +VE (5-8), DILI -VE (-4) [3]: -VE
DILI severity category [4]: vNo-DILI-Concern

COc1cc2c(cc1OC)[C@@H](Cc1cc(OC)c(OC)c(OC)c1)[N+](C)(CCCOC(=O)CC/C=C/CCC(=O)OCCC[N+]1(C)CCc3cc(OC)c(OC)cc3[C@H]1Cc1cc(OC)c(OC)c(OC)c1)CC2 (stereo partly shown) [mivacurium]
DILI +VE (5-8), DILI -VE (-4) [3]: -VE
DILI severity category [4]: vNo-DILI-Concern

CCOC(=O)[C@H](CCc1ccccc1)N[C@@H](C)C(=O)N1Cc2cc(OC)c(OC)cc2C[C@H]1C(=O)O [moexipril]
DILI +VE (5-8), DILI -VE (-4) [3]: -VE
DILI severity category [4]: Ambiguous DILI-concern

CC(C)(O)c1ccccc1CC[C@@H](SCC1(CC(=O)O)CC1)c1cccc(/C=C/c2ccc3ccc(Cl)cc3n2)c1 [montelukast]
DILI +VE (5-8), DILI -VE (-4) (in vivo): +VE
DILI severity category (in vivo): vLess-DILI-Concern

CCOC(=O)Nc1ccc2c(c1)N(C(=O)CCN1CCOCC1)c1ccccc1S2 [moricizine]
DILI +VE (5-8), DILI -VE (-4) [3]: -VE
DILI severity category [4]: Ambiguous DILI-concern

COc1c(N2C[C@@H]3CCCN[C@@H]3C2)c(F)cc2c(=O)c(C(=O)O)cn(C3CC3)c12 [moxifloxacin]
DILI +VE (5-8), DILI -VE (-4) (in vivo): +VE
DILI severity category (in vivo): vLess-DILI-Concern
